Test results as given in patent publication US20030171398A1, “Food compositions for reducing insulin resistance” (Unilever Patent Holdings BV, priority 2001, published 2003).

Legend:
[1] = test system: Human skeletal muscle cells (SMCs); experiment: Glucose uptake assay in human skeletal muscle cells ([3H]2-deoxyglucose); assay type: cell-based
Protocol: Human skeletal muscle cells (SMCs) were obtained from TCS 2000 Ltd. Cells were seeded into 12-well plates at a density of 3×10^4 cells/well and then grown and differentiated as instructed by TCS. Differentiated human SMCs were incubated, for 32 hours at 37° C./5% CO2, in differentiation media (supplied by TCS) supplemented with an appropriate amount of agent or vehicle. Media was then changed to serum free media (MEM-alpha media, 2 mM glutamine, 100 iu/ml penicillin and 100 μg/ml streptomycin), supplemented as before, and the cells incubated for a further 16 hours.
Cells were then washed 3×with Krebs Ringer Phosphate (KRP) buffer [136 mM NaCl, 4.7 mM KCl, 1.25 mM CaCl2, 1.25 mM MgSO4, 10 mM sodium phosphate buffer, pH 7.4] and incubated in KRP (0.5 ml/well) for 30 minutes at 37° C./5% CO2. After 30 minutes incubation the glucose uptake assay was initiated by addition of 25 μl KRP containing 5 μCi [^3H]2-deoxyglucose and 1 mM deoxyglucose. After 10 minutes the reaction was terminated by washing the cells 3×with ice-cold PBS. Cells were then solublised with 125 μl/well of 1% Triton X-100 for 20 minutes at 37° C. Radioactive incorporation was measured by scintillation counting. 100 μl of each sample was analysed.

[2] = molecular target: T1, human PPARγ1 (Homo sapiens, UniProt P37231); experiment: PPARgamma reporter gene assay (luciferase) in transfected cos-7 cells; assay type: cell-based
T1 construct: expressed in transfected cells; host or cells: cos-7 cells (ECACC No. 87021302)
T1 sequence (P37231 1-477 isoform P37231-2): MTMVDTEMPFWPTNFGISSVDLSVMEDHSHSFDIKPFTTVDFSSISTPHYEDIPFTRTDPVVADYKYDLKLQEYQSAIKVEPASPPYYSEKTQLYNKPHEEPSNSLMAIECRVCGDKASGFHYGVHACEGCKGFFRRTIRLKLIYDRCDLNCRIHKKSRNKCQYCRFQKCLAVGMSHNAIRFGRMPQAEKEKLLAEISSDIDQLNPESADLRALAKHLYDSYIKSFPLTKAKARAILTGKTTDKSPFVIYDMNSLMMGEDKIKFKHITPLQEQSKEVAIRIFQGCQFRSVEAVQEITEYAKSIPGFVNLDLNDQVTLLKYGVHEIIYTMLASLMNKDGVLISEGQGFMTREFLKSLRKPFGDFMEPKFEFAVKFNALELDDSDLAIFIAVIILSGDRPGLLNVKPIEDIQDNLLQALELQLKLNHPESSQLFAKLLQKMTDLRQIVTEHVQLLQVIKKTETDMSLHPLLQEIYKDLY
T1 sequence (P19793 1-462 partner): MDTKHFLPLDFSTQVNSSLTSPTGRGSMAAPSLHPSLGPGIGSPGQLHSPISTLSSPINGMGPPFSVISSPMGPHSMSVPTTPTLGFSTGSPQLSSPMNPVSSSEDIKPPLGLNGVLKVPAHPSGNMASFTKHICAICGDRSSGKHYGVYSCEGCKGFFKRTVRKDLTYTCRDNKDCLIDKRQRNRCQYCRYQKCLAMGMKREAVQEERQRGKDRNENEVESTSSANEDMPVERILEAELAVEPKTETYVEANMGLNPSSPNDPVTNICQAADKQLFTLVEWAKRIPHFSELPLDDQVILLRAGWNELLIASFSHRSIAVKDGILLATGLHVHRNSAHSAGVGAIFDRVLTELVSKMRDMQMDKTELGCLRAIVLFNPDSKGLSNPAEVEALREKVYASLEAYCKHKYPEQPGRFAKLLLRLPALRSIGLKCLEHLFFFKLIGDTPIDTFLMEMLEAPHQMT
Protocol: PPARgamma receptor activity is determined by a suitable reporter gene assay. Preferably the reporter gene assay used comprises the transcription induction of a luciferase gene. Levels of firefly luciferase (normalised against the renilla luciferase control) provide a measure of reporter gene activity which in turn reflects the level of activation.
This assay is based on that described by Kliewer et al (Nature 358 771-774 1992). In brief, cos-7 cells (ECACC No. 87021302) were seeded in 24-well plates at a density of 0.325×10^5 cells/well. Cells were grown overnight at 37° C./5% CO2 in DMEM containing 10% FCS, 2 mM L-glutamine, 100 iu/ml penicillin and 100 µg/ml streptomycin. Cells were washed with transfection media (DMEM containing 2 mM L-glutamine) then transiently transfected with 4 plasmids: a PPAR-responsive firefly luciferase reporter gene (pPPRE3TK-luc); mammalian expression plasmids (pcDNA3/hPPARγ1 and pRSV/hRXRα) containing human PPARγ1 and RXRα cDNAs respectively and a control plasmid (PRLTK, Promega) which constitutatively expresses the renilla luciferase gene. Transfection was performed using Lipofectamine (Gibco Brl) as directed by the manufacturers. Transfected cells were incubated for 6 h at 37° C./5% CO2 and then for a further 46 hours in the presence or absence of ligand. After 46 hours cell lysates were prepared and the level of firefly and renilla luciferase determined using the Dual luciferase assay system (Promega) and a MLX microtitre plate luminometer (Dynex). The level of firefly luciferase (normalised against the renilla luciferase control) provides a measure of reporter gene activity. This in turn reflect the level of PPARγ activation.
A double-stranded PPAR-binding site was prepared using the ‘Klenow fill-in’ technique. A 113 bp oligonucleotide (PPRE1/3) containing a triplet of PPREs and appropriate restriction endonuclease sites was designed. PPRE1/3 and a 20 bp oligonucleotide (PPRE1/3R) complementary to the 3′ region of PPRE1/3 were synthesised.
In a final volume of 20 μl 2 μg of PPRE1/3R was annealed to 2 μg of PPRE1/3 by boiling for 5 minutes and then cooling slowly to room temperature. Annealed PPRE1/3R was used to prime second-strand DNA synthesis. A 30 μl reaction mix containing 20 μl annealed DNA, 1.5 μl 2 mM dNTPs, 1×Klenow Buffer and 5 units DNA Polymerase I (Klenow fragment) was incubated for 1 hour at 37° C. and then 10 minutes at 75° C. A 5 μl sample of the synthesised product was analysed on a 3% agarose gel. The remaining product was purified by ethanol precipitation and resuspended in sterile water. The double-stranded PPAR-binding site (insert) was digested with MluI and BgllI for 1 hour at 37° C. and then purified by ethanol precipitation. 1 μg of the vector pNF-κB-luc (Clontech) was digested with MluI and BgllI for 1 hour at 37° C. and then analysed on a 1% agarose gel Digested DNA was purified from the gel using a Qiaquick Gel Extraction Kit (Qiagen). Digested vector and insert DNA were incubated for 4 hours at room temperature in a volume of 15 μl containing 1×ligase buffer and 5 units T4 DNA ligase. The full ligation reaction was used to transform competant E.coli JM109 cells (Promega).

[3] = 1.25 μg/ml, purified components, Table 8
[4] = 2.5 μg/ml, purified components, Table 8
[5] = 5 μg/ml, purified components, Table 8

Row | Activation of PPARgamma in the reporter gene assay (in words) [2] | Reporter gene activity (Fold-induction relative to the vehicle) Mean [2, 3] [Fold-induction] | Reporter gene activity (Fold-induction relative to the vehicle) Mean [2, 4] [Fold-induction] | Reporter gene activity (Fold-induction relative to the vehicle) Mean [2, 5] [Fold-induction] | Reporter gene activity (Fold-induction relative to the vehicle) Mean ([2]; 5 μg/ml, Table 9) [Fold-induction] | Compound | [3H] 2-deoxyglucose uptake (Fold-induction relative to vehicle) Mean ([1]; 2.5 uM) [Fold-induction] | [3H] 2-deoxyglucose uptake (Fold-induction relative to vehicle) Mean ([1]; 5 uM) [Fold-induction]
1 |  |  |  |  |  | CC1(COc2ccc(CC3SC(=O)NC3=O)cc2)CCCCC1 (centres unmarked) [Ciglitizone] | 1.3 | 3.3
2 | able to activate PPARgamma | 2.56 | 3.40 | 8.01 |  | C/C(=C\CC/C(C)=C/CCC1[C@](C)(O)CC[C@H]2C(C)(C)C(=O)CC[C@]12C)CC/C=C(\C)C(=O)O (stereo partly drawn) [Commipheric acid, 13-(decahydro-2-hydroxy-2,5,5,8a-tetramethyl-6-oxo-1-naphthalenyl)-2,6,10-trimethyl-, [1R-[1α(2E,6E,10E),2β,4aβ,8aα]]-2,6,10-tridecatrienoic acid] |  | 
3 | activate PPARgamma to a lesser degree | 3.41 | 4.97 |  |  | C/C(=C\CC/C(C)=C/CC/C(C)=C/CC[C@@H]1[C@@]2(C)CCC(=O)C(C)(C)[C@@H]2CC[C@@]1(C)O)CO [Commipherol, Octahydro-6-hydroxy-5-(13-hydroxy-4,8,12-trimethyl-3,7,11-tridecatrienyl)-1,1,4a,6-tetramethyl-, [4aS-[4aα,5α(3E,7E,11E),6β,8aβ]]-2(1H)-naphthalenone] |  | 
4 | activate PPARgamma to a lesser degree | 1.14 | 1.74 | 3.87 |  | C/C(=C\CC/C(C)=C/CC/C(C)=C/CCC1C(C)(O)CCC2C(C)(C)C(O)CCC12C)CO [Myrrhanol A, Decahydro-5-[(3E,7E,11E)-13-hydroxy-4,8,12-trimethyl-3,7,11-tridecatrienyl]-1,1,4a,6-tetramethyl-, (2S,4aS,5R,6R,8aS)-2,6-naphthalenediol] |  | 

Row | Compound | Activation of PPARgamma in the reporter gene assay (in words) [2] | Reporter gene activity (Fold-induction relative to the vehicle) Mean [2, 3] [Fold-induction] | Reporter gene activity (Fold-induction relative to the vehicle) Mean [2, 4] [Fold-induction] | Reporter gene activity (Fold-induction relative to the vehicle) Mean [2, 5] [Fold-induction] | Reporter gene activity (Fold-induction relative to the vehicle) Mean ([2]; 5 μg/ml, Table 9) [Fold-induction] | [3H] 2-deoxyglucose uptake (Fold-induction relative to vehicle) Mean ([1]; 2.5 uM) [Fold-induction] | [3H] 2-deoxyglucose uptake (Fold-induction relative to vehicle) Mean ([1]; 5 uM) [Fold-induction]
5 | C/C=C1/C(=O)C[C@H]2[C@@H]3CCC4=CC(=O)CC[C@]4(C)[C@H]3CC[C@]12C [E-guggulsterone, reference compound] | neither the E-nor the Z-form of guggulsterone can activate PPARgamma |  |  |  | 0.4 |  | 
6 | C/C=C1\C(=O)C[C@H]2[C@@H]3CCC4=CC(=O)CC[C@]4(C)[C@H]3CC[C@]12C [Z-guggulsterone, reference compound] | neither the E-nor the Z-form of guggulsterone can activate PPARgamma |  |  |  | 0.5 |  | 
